Laboratory results taken from patent publication US7553861B2, “Dipeptidyl peptidase-IV inhibitors” (Alantos Pharmaceuticals Holding, Inc., priority 2005, dated 2009).

Biological target: T1, DPP-IV (Homo sapiens, UniProt P27487)
T1 construct: purchased R&D Systems GmbH, Germany
Test: Assay for determining DP-IV inhibition (fluorometric, Gly-Pro-AMC substrate)
Assay type: biochemical
Conditions: Inhibition of DPP-IV, K(i) calculated from IC(50) with IC(50)=K(i)(1+[S]/Km), pH 8.0
Method: The inhibitory activity of compounds against DPP-IV can be determined by in vitro assay systems, which are themselves well established in the art. The assay results given in Table 5 were obtained according to the following method, employing a modified version of the assay described by Leiting et al., in an article entitled “Catalytic properties and inhibition of proline-specific dipeptidyl peptidases II, IV and VII” in Biochem. J. Vol. 371, pages 525-532 (2003):
DPP-IV activity was determined fluorometrically with Gly-Pro-AMC (where AMC stands for 7-amido-4-methylcoumarin, Bachem AG, Switzerland) as substrate. The reaction mixture contained 10 μl of 1 ng/μl DPP-IV (R&D Systems GmbH, Germany) and 80 μl of 25 mM Tris/HCl buffer, pH 8.0. Compounds were supplied as DMSO stock solutions and diluted in assay buffer to a maximal DMSO concentration of 1% in the assay. Prior to start of the reaction, the mixture was incubated for 30 min at room temperature. The reaction was started by addition of 10 μl of 100 μM substrate solution.
The fluorescence intensity was measured at excitation and emission wavelengths of 355 and 460 nm, respectively, in a FluoStar Galaxy Multiwell Plate (BMG Labtech, Germany). Fluorescence was determined 3 and 4 minutes after start of reaction and increase in fluorescence was used for determination of enzymatic activity. IC(50) values of tested compounds were determined via plotting enzymatic activity versus concentration of test compound and determining the concentration of test compound which yields a 50% inhibition of enzymatic activity.
K(i) values were calculated using the Michaelis-Menten equation for competitive inhibition: IC(50)=K(i)(1+[S]/Km)

T1 sequence (P27487 whole entry): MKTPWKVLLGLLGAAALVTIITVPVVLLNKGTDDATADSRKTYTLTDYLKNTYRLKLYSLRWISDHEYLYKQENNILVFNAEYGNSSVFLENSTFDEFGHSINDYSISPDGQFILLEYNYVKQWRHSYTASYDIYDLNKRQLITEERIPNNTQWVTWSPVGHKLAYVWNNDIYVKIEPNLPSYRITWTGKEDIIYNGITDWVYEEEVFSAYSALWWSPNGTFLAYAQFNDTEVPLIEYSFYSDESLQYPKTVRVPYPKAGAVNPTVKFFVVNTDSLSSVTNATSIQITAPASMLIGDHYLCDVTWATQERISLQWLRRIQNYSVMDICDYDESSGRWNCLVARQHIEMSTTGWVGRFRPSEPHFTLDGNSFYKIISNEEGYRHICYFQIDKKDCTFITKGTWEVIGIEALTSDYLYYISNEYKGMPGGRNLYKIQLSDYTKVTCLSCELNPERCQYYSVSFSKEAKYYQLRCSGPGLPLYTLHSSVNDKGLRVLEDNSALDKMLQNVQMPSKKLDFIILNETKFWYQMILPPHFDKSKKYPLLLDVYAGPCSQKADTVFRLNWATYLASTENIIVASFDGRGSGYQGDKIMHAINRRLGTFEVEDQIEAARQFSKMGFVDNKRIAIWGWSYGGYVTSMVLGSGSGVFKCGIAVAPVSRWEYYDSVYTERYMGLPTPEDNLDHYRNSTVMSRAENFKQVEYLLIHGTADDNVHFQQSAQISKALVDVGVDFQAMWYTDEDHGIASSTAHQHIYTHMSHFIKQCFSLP

Row | Ki [nM] | Compound
1 | 51 to 500 | Cc1ccc(S(=O)(=O)NC(=O)N2C[C@@H]3C[C@H]2C(=O)N3C[C@H](N)C(=O)N2CCC[C@H]2C#N)cc1 [Example 74]
2 | 51 to 500 | CC(C)(C)NC(=O)N1C[C@@H]2C[C@H]1C(=O)N2C[C@H](N)C(=O)N1CCC[C@H]1C#N [Example 75]
3 | < 6 | N#C[C@@H]1CCCN1C(=O)[C@@H](N)CN1C[C@@H]2C[C@H]1CN2S(=O)(=O)c1cccc(F)c1 [Example 77]
4 | 6 to 50 | N#C[C@@H]1CCCN1C(=O)[C@@H](N)CN1C[C@@H]2C[C@H]1CN2c1cccc(F)c1 [Example 78]

Further lines, the compound ahead of its results:

Row | Compound | Ki [nM]
5 | N#C[C@@H]1CCCN1C(=O)[C@@H](N)CN1C(=O)[C@@H]2C[C@H]1CN2C(=O)Cc1cccs1 [Example 70] | 6 to 50
6 | N#C[C@@H]1CCCN1C(=O)[C@@H](N)CN1C(=O)[C@@H]2C[C@H]1CN2C(=O)c1cnccn1 [Example 71] | 6 to 50
7 | N#C[C@@H]1CCCN1C(=O)[C@@H](N)CN1C(=O)[C@@H]2C[C@H]1CN2C(=O)CC1c2ccccc2C=Cc2ccccc21 [Example 72] | < 6
8 | N#C[C@@H]1CCCN1C(=O)[C@@H](N)CN1C(=O)[C@@H]2C[C@H]1CN2C(=O)OCC1c2ccccc2-c2ccccc21 [Example 73] | 6 to 50
9 | N#C[C@@H]1CCCN1C(=O)[C@@H](N)CN1C[C@@H]2C[C@H]1CN2C(=O)Cc1cccs1 [Example 76] | 6 to 50
